Test results: patent publication US20050209278A1, “Piperidinyl- and piperazinyl-sulfonylmethyl hydroxamic acids and their use as protease inhibitors” (priority 2002, published 2005)
“And” between values parts separate entries of the source, which are not always exact repeats. Equal entries are not always repeated.

Experiments:
[1] = target: T1, MMP-14 (Homo sapiens, UniProt P50281); experiment: In vitro MMP inhibition, IC50 determination (fluorogenic substrate I); format: biochemical; details: value in parenthesis; read-out: MMP-14 (IC-50)
T1 construct: The catalytic domain enzyme was expressed in E. coli inclusion bodies, solubilized in urea; made in house
Experimental: Several hydroxamic acids and salts thereof were analyzed in in vitro assays to determine their ability to inhibit the MMP cleavage of peptide substrates. […] and IC50 constants were calculated from the assayed hydroxamic acid-MMP interactions. Human recombinant MMP-1, MMP-2, MMP-9, MMP-13, and MMP-14 were used in this assay. All enzymes were prepared in Assignee's laboratories following usual laboratory procedures. Protocols for the preparation and use of these enzymes are available in the scientific literature. See, e.g., Enzyme Nomenclature (Academic Press, San Diego, Calif., 1992) (and the citations therein). See also, Freije et al., “Molecular cloning and expression of collagenase-3, a novel human matrix metalloproteinase produced by breast carcinomas,” J Biol. Chem., 269(24), 16766-16773 (1994). The MMP-14 full length cDNA was provided by Dr. Gregory Goldberg of Washington University (St. Louis, Mo.). The catalytic domain enzyme was expressed in E. coli inclusion bodies, solubilized in urea, purified on a preparative […] reverse phase HPLC column, and then refolded in the presence of zinc acetate and purified for use. All MMPs were activated using 4-aminophenylmercuric acetate (“APMA”, Sigma Chemical, St. Louis, Mo.) or trypsin. MMP-9 also was activated using human recombinant MMP-3 (purified in Assignee's laboratory following standard cloning and purification techniques). […] Substrate (I) was purchased from Baychem (Redwood City, Calif.), and substrate II was prepared Assignee's laboratory. Substrate I was used in the IC50 determination assays, while substrate II was used in the Ki determination assays. In the absence of MMP inhibitory activity, either substrate is cleaved at the Gly-Leu peptide bond. […] The stock solutions of the assayed hydroxamic acids (or salts thereof) were prepared in 1% dimethyl sulfoxide (DMSO). […] The experiment controls contained the same amount of Buffer A/DMSO as the assayed sample, but contained no hydroxamic acid (or salt thereof). The assays from which the IC50 determinations were made were performed as follows. […] Louis, Mo.). The assayed hydroxamic acid samples were incubated in MicrofluorTM White Plates (Dynatech, Chantilly, Va.) and analyzed on a Perkin Elmer […] plate reader (Norwalk, Conn.). The excitation wavelength was 328 nm, and the emission wavelength-415 nm. […] As stated in the previous paragraph, samples containing varying concentrations of the same assayed hydroxamic acid were prepared. Inhibition was measured as a reduction in fluorescent intensity as a function of MMP inhibitor concentration. […] All values in Table 2 are given in nM units. The IC50 measurements are in parenthesis.

[2] = target: T2, MMP-9 (Homo sapiens, UniProt P14780); experiment: as above; format: biochemical; details: value in parenthesis; read-out: MMP-9 (IC-50)
T2 construct: made in house; host or cells: MMP-9-transfected HT1080 cells (spent media)
T2 sequence (P14780 107-707 limits assumed): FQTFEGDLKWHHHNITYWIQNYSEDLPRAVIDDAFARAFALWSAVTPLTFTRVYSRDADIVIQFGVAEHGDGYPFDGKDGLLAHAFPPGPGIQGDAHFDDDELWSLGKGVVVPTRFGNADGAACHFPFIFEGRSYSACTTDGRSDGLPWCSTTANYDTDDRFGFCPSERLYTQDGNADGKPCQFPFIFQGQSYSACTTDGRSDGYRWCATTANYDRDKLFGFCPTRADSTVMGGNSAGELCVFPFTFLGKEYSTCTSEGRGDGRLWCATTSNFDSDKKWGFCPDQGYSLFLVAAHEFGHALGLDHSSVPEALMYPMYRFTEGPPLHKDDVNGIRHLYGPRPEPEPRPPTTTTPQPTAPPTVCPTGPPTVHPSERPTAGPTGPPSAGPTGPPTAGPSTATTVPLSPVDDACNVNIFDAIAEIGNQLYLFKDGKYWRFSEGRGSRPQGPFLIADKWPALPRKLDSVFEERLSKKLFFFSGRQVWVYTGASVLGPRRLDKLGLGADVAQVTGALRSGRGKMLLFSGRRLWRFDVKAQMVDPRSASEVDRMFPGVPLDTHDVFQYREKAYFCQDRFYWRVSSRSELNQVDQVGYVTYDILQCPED
Experimental: Several hydroxamic acids and salts thereof were analyzed in in vitro assays to determine their ability to inhibit the MMP cleavage of peptide substrates. […] and IC50 constants were calculated from the assayed hydroxamic acid-MMP interactions. Human recombinant MMP-1, MMP-2, MMP-9, MMP-13, and MMP-14 were used in this assay. All enzymes were prepared in Assignee's laboratories following usual laboratory procedures. Protocols for the preparation and use of these enzymes are available in the scientific literature. See, e.g., Enzyme Nomenclature (Academic Press, San Diego, Calif., 1992) (and the citations therein). See also, Freije et al., “Molecular cloning and expression of collagenase-3, a novel human matrix metalloproteinase produced by breast carcinomas,” J Biol. Chem., 269(24), 16766-16773 (1994). The MMP-9 proenzyme was purified by gelatin Sepharose chromatography from spent media of MMP-9-transfected HT1080 cells provided by Dr. Howard Welgus of Washington University (St. Louis, Mo.). All MMPs were activated using 4-aminophenylmercuric acetate (“APMA”, Sigma Chemical, St. Louis, Mo.) or trypsin. MMP-9 also was activated using human recombinant MMP-3 (purified in Assignee's laboratory following standard cloning and purification techniques). […] Substrate (I) was purchased from Baychem (Redwood City, Calif.), and substrate II was prepared Assignee's laboratory. Substrate I was used in the IC50 determination assays, while substrate II was used in the Ki determination assays. In the absence of MMP inhibitory activity, either substrate is cleaved at the Gly-Leu peptide bond. […] The stock solutions of the assayed hydroxamic acids (or salts thereof) were prepared in 1% dimethyl sulfoxide (DMSO). […] The experiment controls contained the same amount of Buffer A/DMSO as the assayed sample, but contained no hydroxamic acid (or salt thereof). The assays from which the IC50 determinations were made were performed as follows. […] Louis, Mo.). The assayed hydroxamic acid samples were incubated in MicrofluorTM White Plates (Dynatech, Chantilly, Va.) and analyzed on a Perkin Elmer […] plate reader (Norwalk, Conn.). The excitation wavelength was 328 nm, and the emission wavelength-415 nm. […] As stated in the previous paragraph, samples containing varying concentrations of the same assayed hydroxamic acid were prepared. Inhibition was measured as a reduction in fluorescent intensity as a function of MMP inhibitor concentration. […] All values in Table 2 are given in nM units. The IC50 measurements are in parenthesis.

| IC50 [1] [nM] | IC50 [2] | SMILES |
| --- | --- | --- |
| 648 | 3.2 nM and 1.9 nM | O=C(NO)C1(S(=O)(=O)N2CCN(c3ccc(OC(F)(F)F)cc3)CC2)CCN(C2CC2)CC1 [Example 203] |
| 1170 | 6.3 nM | COCCN1CCC(C(=O)NO)(S(=O)(=O)N2CCN(c3ccc(OC(F)(F)F)cc3)CC2)CC1 [Example 202] |

Continued, compound first:

| SMILES | IC50 [1] [nM] | IC50 [2] |
| --- | --- | --- |
| CCCCCCc1ccc(N2CCN(S(=O)(=O)C3(C(=O)NO)CCN(CCOC)CC3)CC2)cc1 [Example 199] | 6710 | 1 nM |
| CCCc1ccc(N2CCN(S(=O)(=O)C3(C(=O)NO)CCN(CCOC)CC3)CC2)cc1 [Example 200] | 1490 | < 0.1 nM |
| COCCN1CCC(C(=O)NO)(S(=O)(=O)N2CCN(c3ccc(Br)cc3)CC2)CC1 [Example 201] | 301 | 5.7 nM |
